Laboratory results from patent US7682618B2 (priority 2001, dated 2010).

Columns and labels:
[1] = tested on: EBOV infection of Vero E6 cells; assay type: cell-based, Ebola virus
[2] = tested on: Ebola GP in lipid rafts of 293T cells; assay type: cell-based, human

| Molecule | general cytotoxic effect, trypan blue exclusion (Vero E6 cells) | EBOV infection, viral titer 48 hour post infection [1] | virus production after recovery from drug treatment [1] | association of Ebola GP with rafts (detergent insoluble fraction) [2] |
| --- | --- | --- | --- | --- |
| CCCCC[C@@H](O)[C@H]1C(=O)O[C@H](C)[C@@H](O)/C=C/C=C/C=C/C=C/C=C(\C)[C@@H](O)C[C@H](O)C[C@H](O)C[C@H](O)C[C@H](O)C[C@H](O)C[C@@H]1O [filipin] | viable | significant inhibition of EBOV infection | could produce large amounts of virus | – |
| methyl-β-cyclodextrin | – | – | – | almost complete removal of Ebola GP from rafts |
| nystatin | viable | – | – | – |
